Positions count from the first letter of the chain named.

For the first assay, the target named is T1, AR protein (Homo sapiens, UniProt P10275, T878A).
T1 construct: degradation activity of the compounds disclosed in the present disclosure on AR protein in LNCaP cells; host or cells: LNCaP FGC
T1 sequence (P10275 1-920 T878A): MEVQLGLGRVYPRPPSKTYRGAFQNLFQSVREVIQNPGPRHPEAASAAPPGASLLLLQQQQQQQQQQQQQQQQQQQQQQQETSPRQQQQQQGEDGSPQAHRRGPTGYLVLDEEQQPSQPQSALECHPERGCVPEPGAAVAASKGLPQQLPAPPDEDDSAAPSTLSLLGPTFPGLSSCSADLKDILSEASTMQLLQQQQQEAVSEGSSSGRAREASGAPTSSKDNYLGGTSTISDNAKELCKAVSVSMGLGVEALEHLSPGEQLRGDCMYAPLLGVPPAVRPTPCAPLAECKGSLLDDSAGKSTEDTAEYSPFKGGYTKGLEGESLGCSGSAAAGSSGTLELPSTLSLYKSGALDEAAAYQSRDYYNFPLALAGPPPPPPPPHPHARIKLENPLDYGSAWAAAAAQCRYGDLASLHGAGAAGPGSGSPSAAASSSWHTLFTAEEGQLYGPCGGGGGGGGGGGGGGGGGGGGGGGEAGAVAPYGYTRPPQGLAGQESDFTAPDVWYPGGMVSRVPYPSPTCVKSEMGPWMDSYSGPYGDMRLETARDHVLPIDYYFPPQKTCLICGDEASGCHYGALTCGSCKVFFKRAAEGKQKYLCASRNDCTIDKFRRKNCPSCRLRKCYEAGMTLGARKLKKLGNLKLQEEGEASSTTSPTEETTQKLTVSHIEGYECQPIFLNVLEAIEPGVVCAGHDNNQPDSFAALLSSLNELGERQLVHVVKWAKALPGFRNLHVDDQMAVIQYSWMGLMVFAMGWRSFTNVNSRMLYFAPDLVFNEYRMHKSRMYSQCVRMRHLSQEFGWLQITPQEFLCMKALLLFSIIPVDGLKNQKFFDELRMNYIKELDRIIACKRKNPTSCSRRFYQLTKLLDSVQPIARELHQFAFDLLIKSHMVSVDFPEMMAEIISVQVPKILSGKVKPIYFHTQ
Description: Degradation of AR protein in LNCaP cells (Western blot). The assay is classed as cell-based. The settings on record: LNCaP cells, compound 10 nM, 8 hours, Western blot grayscale, GAPDH internal reference; read-out: Degradation rates of the AR protein in LNCaP cells, 10 nM (%). The procedure, abridged: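 AR assessed by SDS-PAGE/Western blot with infrared imaging; band greyscale normalised to GAPDH gave percent degradation.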
On the technique in general: In western blotting, separated proteins are transferred to a membrane and probed.
For the compound `N#Cc1ccc(O[C@H]2CC[C@H](NC(=O)c3ccc(C#Cc4ccc(N5CCC6(CC5)COc5c6ccc6c5CN(C5CCC(=O)NC5=O)C6=O)nc4)nn3)CC2)cc1Cl` (stereo partly drawn) [Compound 239], the inhibition at 0.01 µM was found to be 65%.
With `N#Cc1ccc(O[C@H]2CC[C@H](NC(=O)c3ccc(N4CCN(CC(=O)N5CCC6(CC5)COc5c6ccc6c5CN(C5CCC(=O)NC5=O)C6=O)CC4)nn3)CC2)cc1Cl` (stereo partly drawn) [Compound 241], the inhibition at 0.01 µM was determined as 50%.
As for `CCOC1(CN2CCC3(CC2)COc2c3ccc3c2C(=O)N(C2CCC(=O)NC2=O)C3=O)CCN(c2ccc(C(=O)N[C@H]3CC[C@H](Oc4ccc(C#N)c(C(F)(F)F)c4)CC3)nn2)CC1` (stereo partly drawn) [Compound 242], the inhibition at 0.01 µM is -18%.
With `CCOC1(CN2CCC3(CC2)COc2c3ccc3c2C(=O)N(C2CCC(=O)NC2=O)C3=O)CCN(c2ccc(C(=O)N[C@H]3CC[C@H](Oc4ccc(C#N)c(OC)c4)CC3)nn2)CC1` (stereo partly drawn) [Compound 243], the inhibition at 0.01 µM was 24%.

Still in this assay, the particulars now being: LNCaP cells, compound 100 nM, 8 hours, Western blot grayscale, GAPDH internal reference; read-out: Degradation rates of the AR protein in LNCaP cells, 100 nM (%).
As to `N#Cc1ccc(O[C@H]2CC[C@H](NC(=O)c3ccc(C#Cc4ccc(N5CCC6(CC5)COc5c6ccc6c5CN(C5CCC(=O)NC5=O)C6=O)nc4)nn3)CC2)cc1Cl` (stereo partly drawn) [Compound 239], the inhibition at 0.1 µM was 69%.
As for `N#Cc1ccc(O[C@H]2CC[C@H](NC(=O)c3ccc(N4CCN(CC(=O)N5CCC6(CC5)COc5c6ccc6c5CN(C5CCC(=O)NC5=O)C6=O)CC4)nn3)CC2)cc1Cl` (stereo partly drawn) [Compound 241], the inhibition at 0.1 µM came out at 63%.
For `CCOC1(CN2CCC3(CC2)COc2c3ccc3c2C(=O)N(C2CCC(=O)NC2=O)C3=O)CCN(c2ccc(C(=O)N[C@H]3CC[C@H](Oc4ccc(C#N)c(C(F)(F)F)c4)CC3)nn2)CC1` (stereo partly drawn) [Compound 242], the inhibition at 0.1 µM was 11%.
As for `CCOC1(CN2CCC3(CC2)COc2c3ccc3c2C(=O)N(C2CCC(=O)NC2=O)C3=O)CCN(c2ccc(C(=O)N[C@H]3CC[C@H](Oc4ccc(C#N)c(OC)c4)CC3)nn2)CC1` (stereo partly drawn) [Compound 243], the inhibition at 0.1 µM was 58%.

For the next assay, the target named is T2, AR protein (Homo sapiens, UniProt P10275).
T2 construct: degradation activity of the compounds disclosed in the present disclosure on AR protein in VCaP cells; host or cells: VCaP
T2 sequence (P10275 1-920): T1 sequence (P10275 1-920 T878A) with A878T
The experiment in a line: Degradation of AR protein in VCaP cells (Western blot). The following applies: compound at 10 nM, 8 hours, read-out: Degradation rate of the AR protein in VCaP cells, 10 nM (%). The assay is classed as cell-based. Summed up: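 VCaP cells treated with compound alongside solvent controls for 8 h, then lysed in RIPA and protein quantified by BCA. AR detected by SDS-PAGE/Western blot with infrared imaging. Degradation rate calculated from band grayscale, with GAPDH as internal reference.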
In the case of `N#Cc1ccc(O[C@H]2CC[C@H](NC(=O)c3ccc(C#Cc4ccc(N5CCC6(CC5)COc5c6ccc6c5CN(C5CCC(=O)NC5=O)C6=O)nc4)nn3)CC2)cc1Cl` (stereo partly drawn) [Compound 239], the inhibition at 0.01 µM came to 11%.
As to `N#Cc1ccc(O[C@H]2CC[C@H](NC(=O)c3ccc(N4CCN(CC(=O)N5CCC6(CC5)COc5c6ccc6c5CN(C5CCC(=O)NC5=O)C6=O)CC4)nn3)CC2)cc1Cl` (stereo partly drawn) [Compound 241], the inhibition at 0.01 µM came to 29%.
With `CCOC1(CN2CCC3(CC2)COc2c3ccc3c2C(=O)N(C2CCC(=O)NC2=O)C3=O)CCN(c2ccc(C(=O)N[C@H]3CC[C@H](Oc4ccc(C#N)c(C(F)(F)F)c4)CC3)nn2)CC1` (stereo partly drawn) [Compound 242], the inhibition at 0.01 µM is -5%.
Turning to `CCOC1(CN2CCC3(CC2)COc2c3ccc3c2C(=O)N(C2CCC(=O)NC2=O)C3=O)CCN(c2ccc(C(=O)N[C@H]3CC[C@H](Oc4ccc(C#N)c(OC)c4)CC3)nn2)CC1` (stereo partly drawn) [Compound 243], the inhibition at 0.01 µM turned out to be 16%.

Still in this assay, the particulars now being: compound at 100 nM, 8 hours, read-out: Degradation rate of the AR protein in VCaP cells, 100 nM (%).
With `N#Cc1ccc(O[C@H]2CC[C@H](NC(=O)c3ccc(C#Cc4ccc(N5CCC6(CC5)COc5c6ccc6c5CN(C5CCC(=O)NC5=O)C6=O)nc4)nn3)CC2)cc1Cl` (stereo partly drawn) [Compound 239], the inhibition at 0.1 µM came to 54%.
`N#Cc1ccc(O[C@H]2CC[C@H](NC(=O)c3ccc(N4CCN(CC(=O)N5CCC6(CC5)COc5c6ccc6c5CN(C5CCC(=O)NC5=O)C6=O)CC4)nn3)CC2)cc1Cl` (stereo partly drawn) [Compound 241]: the inhibition at 0.1 µM was 77%.
`CCOC1(CN2CCC3(CC2)COc2c3ccc3c2C(=O)N(C2CCC(=O)NC2=O)C3=O)CCN(c2ccc(C(=O)N[C@H]3CC[C@H](Oc4ccc(C#N)c(C(F)(F)F)c4)CC3)nn2)CC1` (stereo partly drawn) [Compound 242]: the inhibition at 0.1 µM stood at 15%.
As for `CCOC1(CN2CCC3(CC2)COc2c3ccc3c2C(=O)N(C2CCC(=O)NC2=O)C3=O)CCN(c2ccc(C(=O)N[C@H]3CC[C@H](Oc4ccc(C#N)c(OC)c4)CC3)nn2)CC1` (stereo partly drawn) [Compound 243], the inhibition at 0.1 µM is 68%.

Another assay has as its system LNCaP FGC cells. The experiment in a line: Inhibition of proliferation of LNCaP cells (WST-8). The assay is classed as cell-based. The settings on record: Homo sapiens, LNCaP, 96 h, LNCaP FGC cells, 96 hours, WST-8 absorbance at 450 nm; read-out: IC50 for inhibiting the proliferation of LNCaP cells. On the procedure:
The cells were cultured in a cell culture incubator with 5% CO2 at 37° C. overnight. […] On the sixth day, 96 well plates were taken out, and 20 μL of WST-8 (Beytime, C0040) reagent was added to each well.
In general terms: Formazan colour is commonly taken as a measure of viable cells.
`N#Cc1ccc(O[C@H]2CC[C@H](NC(=O)c3ccc(C#Cc4ccc(N5CCC6(CC5)COc5c6ccc6c5CN(C5CCC(=O)NC5=O)C6=O)nc4)nn3)CC2)cc1Cl` (stereo partly drawn) [Compound 239]: the IC50 was determined as 13.5 µM.
Turning to `N#Cc1ccc(O[C@H]2CC[C@H](NC(=O)c3ccc(N4CCN(CC(=O)N5CCC6(CC5)COc5c6ccc6c5CN(C5CCC(=O)NC5=O)C6=O)CC4)nn3)CC2)cc1Cl` (stereo partly drawn) [Compound 241], the IC50 turned out to be 68.6 µM.
On the same count and under the same terms, the result for `CCOC1(CN2CCC3(CC2)COc2c3ccc3c2C(=O)N(C2CCC(=O)NC2=O)C3=O)CCN(c2ccc(C(=O)N[C@H]3CC[C@H](Oc4ccc(C#N)c(C(F)(F)F)c4)CC3)nn2)CC1` (stereo partly drawn) [Compound 242] reads 0.64 µM; that for `CCOC1(CN2CCC3(CC2)COc2c3ccc3c2C(=O)N(C2CCC(=O)NC2=O)C3=O)CCN(c2ccc(C(=O)N[C@H]3CC[C@H](Oc4ccc(C#N)c(OC)c4)CC3)nn2)CC1` (stereo partly drawn) [Compound 243], 0.12 µM.

The subject of the next assay is VCaP cells. The experiment in a line: Inhibition of proliferation of VCaP cells (WST-8). It counts as cell-based. The settings on record: Homo sapiens; VCaP cells, 168 hours, WST-8 absorbance at 450 nm; read-out: IC50 for inhibiting the proliferation of VCaP cells. Summed up:
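VCaP FGC cells, 15000 per well in DMEM with 10% FBS, were cultured at 37° C, 5% CO2. On day nine, WST-8 reagent was added to read proliferation.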
As for `N#Cc1ccc(O[C@H]2CC[C@H](NC(=O)c3ccc(C#Cc4ccc(N5CCC6(CC5)COc5c6ccc6c5CN(C5CCC(=O)NC5=O)C6=O)nc4)nn3)CC2)cc1Cl` (stereo partly drawn) [Compound 239], the IC50 is 0.022 µM.
Consider `N#Cc1ccc(O[C@H]2CC[C@H](NC(=O)c3ccc(N4CCN(CC(=O)N5CCC6(CC5)COc5c6ccc6c5CN(C5CCC(=O)NC5=O)C6=O)CC4)nn3)CC2)cc1Cl` (stereo partly drawn) [Compound 241], for which the IC50 was determined as 0.0085 µM.
As for `CCOC1(CN2CCC3(CC2)COc2c3ccc3c2C(=O)N(C2CCC(=O)NC2=O)C3=O)CCN(c2ccc(C(=O)N[C@H]3CC[C@H](Oc4ccc(C#N)c(C(F)(F)F)c4)CC3)nn2)CC1` (stereo partly drawn) [Compound 242], the IC50 came out at 0.094 µM.
`CCOC1(CN2CCC3(CC2)COc2c3ccc3c2C(=O)N(C2CCC(=O)NC2=O)C3=O)CCN(c2ccc(C(=O)N[C@H]3CC[C@H](Oc4ccc(C#N)c(OC)c4)CC3)nn2)CC1` (stereo partly drawn) [Compound 243]: the IC50 is 0.018 µM.

Values taken from patent US20260234157A1, “COMPOUND AND METHOD FOR TARGETED DEGRADATION OF ANDROGEN RECEPTOR” (Gan & Lee Pharmaceuticals Co., Ltd., priority 2023, published 2026).
